Measurements as given in publication PMC13252604, “First Generation Proteolysis Targeting Chimeras (PROTACs) for the Treatment of Progeria” (Advanced Science, 2026).

Tests used:
[1] = Parallel artificial membrane permeability assay (PAMPA); assay type: in vitro ADME; details: read-out: P, permeability
Experimental: Pharmacokinetic properties, including solubility and membrane permeability, are critical in drug discovery but can pose challenges in PROTAC development […] The calculated logarithm of the partition coefficient between n‐octanol and water (clogP), determined using ACDLabs Percepta Software, indicated an acceptable lipophilicity for PROTAC 2 (clogP = 3.94), aligning with Lipinski's “rule of 5” (clogP<5). […] Compound permeability was assessed using the parallel artificial membrane permeability assay (PAMPA), which measures the ability of compounds to diffuse through a lipid‐infused artificial membrane. […] The cellular uptake of compound 2 was further confirmed by fluorescence microscopy, leveraging the intrinsic fluorescence of pomalidomide‐bearing derivatives (Figure S4).

[2] = Stability in human serum; assay type: in vitro ADME
From the text: TABLE 1 Pharmacokinetic parameters of PROTAC 2. | column: Stability (hours) ^b / h‐serum

[3] = system: HGADFN167 Lmna^G608G/G608G fibroblasts; experiment: Cell cycle analysis by flow cytometry; assay type: cell-based, human; details: HGADFN167, 5 µM, 20 days
Experimental: Supporting Figure S5. Cell cycle analysis histogram. Flow cytometry analysis of DNA content showing cell cycle distribution with peaks corresponding to G0/G1 (labeled as M1) and G2/M phases, and an intermediate region representing S phase (S/G2/M are labeled as M2). Human progeroid LmnaG608G/G608G fibroblasts (HGADFN167 cells, from The Progeria Research Foundation) were incubated with 5 μM of compound 2 for 20 days and analyzed for DNA content by flow cytometry in a FACSCalibur Flow cytometer (Becton Dickinson). Images shown correspond to one representative analysis and bar graph represents mean±sem of 2 independent experiments performed in duplicate.
*p<0.05 vs HGADFN167 cells, one-way ANOVA. […]
Cells were harvested by trypsin, centrifuged and washed with PBS. Cells pellets were added with 70% (vol/vol) ice-cold ethanol. […] The mixture was then allowed to incubate for 30min at 37 °C in the dark and samples were finally analysed by FACScalibur (Becton Dickinson) flow cytometer […]
(§1) Cells were incubated for 1 h in 1% OsO4 at room temperature and then thoroughly washed with milliQ water. […] The samples were analysed and examined in the transmission electron microscope JEM 1010 at 80 […]
Total RNA of HGPS fibroblasts (HGADFN167) and UCM-18142-treated HGPS fibroblasts were extracted for RNA sequencing. The RNA concentration and integrity were assessed using the Tape Station 4150 system (Agilent). […]

[4] = system: HGADFN167 Lmna^G608G/G608G fibroblasts; experiment: Transmission electron microscopy of mitochondria; assay type: cell-based, human; details: HGADFN167, 5 µM, 20 days
Experimental: Supporting Figure S6. Basal respiration and electronic microscopy analysis of mitochondria in wild type and HGPS cells. (A) PROTAC 2 increases basal respiration (OCR, oxygen consumption rate) in human progeroid cells. Bar graphs show mean±sem of 2 independent experiments performed in duplicate. HGADFN167 LmnaG608G/G608G (progeroid) and HGADFN168 Lmna+/+ (wild type) fibroblasts, provided by the Progeria Research Foundation, were incubated with vehicle or 2 (5 µM) for 20 days. *, p<0.05 vs G608G cells, one-way ANOVA. […]
Mitochondria were evaluated for the integrity of the membrane, matrix and cristae, and were classified as mitochondria with normal morphology (black arrows) or damaged mitochondria (red arrows, with alterations in the membrane, presence of inclusions in the matrix and concentric cristae or “onion-like” mitochondria). […]
Cells were harvested by trypsin, centrifuged and washed with PBS. […] The mixture was then allowed to incubate for 30min at 37 °C in the dark and samples were finally analysed by FACScalibur (Becton Dickinson) flow cytometer […]
as §1

## CC1(C)Oc2cc3oc(=O)ccc3cc2C[C@@H]1OC(=O)CCCCCNc1cccc2c1C(=O)N(C1CCC(=O)NC1=O)C2=O (stereo partly shown) [compound 2]
[1]
  Papp: 6.7 ×10⁻⁶ cm/s
[2]
  Stability (hours) h‐serum: >24 h
[3]
  percentage of cells undergoing replication (phases S/G2/M): increase
[4]
  number of healthy mitochondria (electron microscopy): enhances
